Tested on: skin
Assay: Affymetrix microarray of skin, DBP-4 hr and analogs vs. untreated; gene selection by log-2 fold change, Wilcoxon, Kendall tau (Tables 8, 9)
Assay type: in vivo, mouse
Settings: for Wilcoxon: DBP-4 hr vs. untreated, selected by p-value; for Kendall: selected by Kendall tau, expression vs. output
[1] = gene 1500032L24Rik NM_026914_at
[2] = gene 2210016L21Rik NM_028211_at
[3] = gene 4931408A02Rik NM_027627_at
[4] = gene 4933407C03Rik NM_028941_at
[5] = gene 5730494N06Rik NM_027478_at

## CCCCOC(=O)c1ccccc1C(=O)OCCCC [DBP, dibutylphthalate]
[1]
  Wilcoxon: No
  Kendall: Yes
[2]
  Wilcoxon: No
  Kendall: Yes
[3]
  Wilcoxon: No
  Kendall: Yes
[4]
  Wilcoxon: No
  Kendall: Yes
[5]
  Wilcoxon: No
  Kendall: Yes
Gene Ankrd24 NM_027480_at
  Wilcoxon: No
  Kendall: Yes
Gene Cby1 NM_028634_at
  Wilcoxon: No
  Kendall: Yes
Gene Ccdc123 NM_028120_at
  Wilcoxon: No
  Kendall: Yes
Gene Cdc42ep1 NM_027219_at
  Wilcoxon: No
  Kendall: Yes
Gene Cdca4 NM_028023_at
  Wilcoxon: No
  Kendall: Yes
Gene Cenpv NM_028448_at
  Wilcoxon: No
  Kendall: Yes
Gene Chst14 NM_028117_at
  Wilcoxon: No
  Kendall: Yes
Gene Cnot8 NM_026949_at
  Wilcoxon: No
  Kendall: Yes
Gene Ebpl NM_026598_at
  Wilcoxon: No
  Kendall: Yes
Gene Ict1 NM_026729_at
  Wilcoxon: No
  Kendall: Yes
Gene Ift80 NM_026641_at
  Wilcoxon: No
  Kendall: Yes
Gene Lrrfip2 NM_027742_at
  Wilcoxon: No
  Kendall: Yes
Gene Med23 NM_027347_at
  Wilcoxon: No
  Kendall: Yes
Gene Mlh1 NM_026810_at
  Wilcoxon: No
  Kendall: Yes
Gene Mterfd3 NM_028832_at
  Wilcoxon: No
  Kendall: Yes
Gene Rnf135 NM_028019_at
  Wilcoxon: No
  Kendall: Yes
Gene Rnf157 NM_027258_at
  Wilcoxon: No
  Kendall: Yes
Gene Rrp1b NM_028244_at
  Wilcoxon: No
  Kendall: Yes
Gene Slc25a35 NM_028048_at
  Wilcoxon: No
  Kendall: Yes
Gene Tmem55a NM_028264_at
  Wilcoxon: No
  Kendall: Yes
Gene Tmem80 NM_027797_at
  Wilcoxon: No
  Kendall: Yes
Gene Tmtc4 NM_028651_at
  Wilcoxon: No
  Kendall: Yes
Gene Zfyve21 NM_026752_at
  Wilcoxon: No
  Kendall: Yes

Reference: patent publication US20150307938A1, “METHOD TO IDENTIFY A NOVEL CLASS OF IMMUNOLOGIC ADJUVANTS” (Lancell, L.L.C., priority 2011, published 2015)
